Patent US20240257668A1, “3D ARTIFICIAL SKIN MODEL AND METHOD FOR PRODUCING THE SAME” (Korea Advanced Institute of Science and Technology, priority 2023, published 2024)

B1: transforming growth factor-beta 2 (protein, UniProt P61812 303-414, looked up)
Transforming growth factor …: ALDAAYCFRNVQDNCCLRPLYIDFKRDLGWKWIHEPKGYNANFCAGACPYLWSSDTQHSRVLSLYNTINPEASASPCCVSQDLEPLTILYYIGKTPKIEQLSNMIVKSCKCS

Key:
[1] = system: stromal layer of the basement membrane+stromal layer artificial skin model; experiment: Inhibition of tissue contraction of basement membrane+stromal layer artificial skin model by blebbistatin; type: cell-based
Description: Additionally, the basement membrane+stromal layer model without epithelial cells (Example 1-4) was produced and incubated for 24 hours under conditions of 37° C. and 5% CO2.
After incubation, each sample was imaged with a confocal fluorescence microscope at a wavelength of 488 nm, and the images were synthesized into two-dimensional images by max intensity projection using the ImageJ imaging program. […] However, it could be seen that, in the sample in which tissue contraction had already occurred, tissue contraction was maintained even after subsequent treatment with blebbistatin.

[2] = system: stromal cells (fibroblasts) in the stromal layer; experiment: Tissue contraction of basement membrane+stromal layer artificial skin model incubated with TGF-β2; type: cell-based; conditions: 10 ng/ml TGF-β2 added to DMEM + 10% FBS + 1% P/S; 96 hours, 37° C., 5% CO2; model without epithelial cells (FIGS. 5 and 6)
Description: In order to form wavy ridges in the stromal layer corresponding to the dermal layer of normal skin tissue, tissue contraction is required at the stromal layer boundary that is in contact with the basement membrane. In order to confirm whether the artificial skin model of the present disclosure can mimic this function, a basement membrane+stromal layer model without epithelial cells (Example 1-4) was produced, incubated under conditions of 37° C. and 5% CO2 for 96 hours. Incubation was performed using DMEM containing 10% FBS (fetal bovine serum) and 1% P/S (penicillin/streptomycin), and 10 ng/ml of TGF-β2 (transforming growth factor-beta 2) was additionally added to the test group. FIGS. 5 and 6, respectively, show the results of imaging the incubated model and the results of quantifying the image size relative to the control strain (0) based on 6 mm. The physical property was measured with Anton Paar MCR 92. […] This is believed to be because TGF-β2 increased contraction by activating stromal cells (fibroblasts) in the stromal layer. Therefore, in the following study, a medium supplemented with 10 ng/ml of TGF-β2 was used.

Row | Molecule | tissue contraction at the stromal layer boundary ([1]; 10 μM blebbistatin in control medium (with 10 ng/ml TGF-β2) from the beginning, 24 hours (group Bleb; FIG. 7)) | tissue contraction at the stromal layer boundary ([1]; 12 hours control medium, then 12 hours with 10 μM blebbistatin, tissue contraction already occurred (group Bleb after 12 hours; FIG. 7)) | tissue contraction at the boundary of the stromal layer [2]
1 | Cc1ccc2c(c1)C(=O)C1(O)CCN(c3ccccc3)C1=N2 (stereo not drawn) [blebbistatin] | inhibited | maintained | –
2 | B1 | – | – | well induced
